Read-outs that look alike come from different tables or passages of the source.
Tests used:
[1] = rcm bond, Grubbs 2nd generation catalyst, 25.0 °C
E-selectin = molecular target: T1, E-selectin (Homo sapiens, UniProt P16581); experiment: E-selectin activity competitive binding assay (sLe^a polyacrylamide / streptavidin-HRP conjugate); details: immobilized E-selectin/Ig chimera; concentration required to inhibit sLe^a binding by 50%; absorbance 450 nm
T1 construct: fused on or other part: Immunoglobulin (Ig) part fused on as a handle for immobilising and dimerising
T1 sequence (P16581 22-175 limits assumed): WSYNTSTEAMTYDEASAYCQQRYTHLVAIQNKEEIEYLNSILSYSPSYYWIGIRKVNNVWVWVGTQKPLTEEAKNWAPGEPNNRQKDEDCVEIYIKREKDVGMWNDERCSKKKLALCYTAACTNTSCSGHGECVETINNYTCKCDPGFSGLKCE
Text: An inhibition assay may be used to screen for antagonists of E-selectin. For example, an assay may be performed to characterize the capability of a compound described herein to inhibit (i.e., reduce, block, decrease, or prevent in a statistically or biologically significant manner) interaction of E-selectin with sLe^a or sLe^x. The inhibition assay may be a competitive binding assay, which allows the determination of IC50 values. By way of example, E-selectin/Ig chimera may be immobilized onto a matrix (e.g., a multi-well plate, which may be made from a polymer, such as polystyrene; a test tube, and the like); a composition may be added to reduce nonspecific binding (e.g., a composition comprising non-fat dried milk or bovine serum albumin or other blocking buffer routinely used by a person skilled in the art); the immobilized E-selectin may be contacted with the candidate compound in the presence of sLe^a comprising a reporter group under conditions and for a time sufficient to permit sLe^a to bind to the immobilized E-selectin; the immobilized E-selectin may be washed; and the amount of sLe^a bound to immobilized E-selectin may be detected. Variations of such steps can be readily and routinely accomplished by a person of ordinary skill in the art.
The inhibition assay to screen and characterize glycomimetic antagonists of E-selectin is a competitive binding assay, from which IC50 values may be determined. E-selectin/Ig chimera was immobilized in 96 well microtiter plates by incubation at 37° C. for 2 hours. To reduce nonspecific binding, bovine serum albumin was added to each well and incubated at room temperature for 2 hours. The plate was washed and serial dilutions of the test compounds were added to the wells in the presence of conjugates of biotinylated, sLe^a polyacrylamide with streptavidin/horseradish peroxidase and incubated for 2 hours at room temperature.
To determine the amount of sLe^a bound to immobilized E-selectin after washing, the peroxidase substrate, 3,3′,5,5′ tetramethylbenzidine (TMB) was added. After 3 minutes, the enzyme reaction was stopped by the addition of H3PO4, and the absorbance of light at a wavelength of 450 nm was determined.

IC50 (E-selectin) [µM]	Structure (SMILES)	other results
	CC[C@H]1CCC[C@@H](O[C@@H]2O[C@@H]3COC(c4ccccc4)O[C@@H]3[C@@H]3O[C@@H](C(=O)OCc4ccccc4)CC=CCO[C@@H]23)[C@@H]1O[C@@H]1O[C@@H](C)[C@@H](OCc2ccccc2)[C@@H](OCc2ccccc2)[C@@H]1OCc1ccccc1 (stereo partly shown)	ring closure, yield of all isomers ([1]; from C=CCO[C@H]1[C@H](O[C@@H]2CCC[C@H](CC)[C@H]2O[C@@H]2O[C@@H](C)[C@@H](OCc3ccccc3)[C@@H](OCc3ccccc3)[C@@H]2OCc2ccccc2)O[C@@H]2COC(c3ccccc3)O[C@@H]2[C@@H]1O[C@H](CC=C)C(=O)OCc1ccccc1, 16.0 h): 66%
	COC(=O)C1CC=CCCO[C@H]2[C@H](O[C@@H]3CCC[C@H](C)[C@H]3O[C@@H]3O[C@@H](C)[C@@H](OCc4ccccc4)[C@@H](OCc4ccccc4)[C@@H]3OCc3ccccc3)O[C@H](COCc3ccccc3)[C@H](O)[C@@H]2O1 (stereo partly shown)	ring closure, yield of all isomers ([1]; from C=CCCO[C@H]1[C@H](O[C@@H]2CCC[C@H](C)[C@H]2O[C@@H]2O[C@@H](C)[C@@H](OCc3ccccc3)[C@@H](OCc3ccccc3)[C@@H]2OCc2ccccc2)O[C@H](COCc2ccccc2)[C@H](O)[C@@H]1OC(CC=C)C(=O)OC, DCM, 2.0 h): 82.5%
	COC(=O)C1CC=CCO[C@H]2[C@H](O[C@@H]3CCC[C@H](C)[C@H]3O[C@@H]3O[C@@H](C)[C@@H](OCc4ccccc4)[C@@H](OCc4ccccc4)[C@@H]3OCc3ccccc3)O[C@H](COCc3ccccc3)[C@H](O)[C@@H]2O1 (stereo partly shown)	ring closure, yield of all isomers ([1]; from C=CCO[C@H]1[C@H](O[C@@H]2CCC[C@H](C)[C@H]2O[C@@H]2O[C@@H](C)[C@@H](OCc3ccccc3)[C@@H](OCc3ccccc3)[C@@H]2OCc2ccccc2)O[C@H](COCc2ccccc2)[C@H](O)[C@@H]1OC(CC=C)C(=O)OC, DCM, 5.25 mM, 2.0 h): 86%
15.2	CC1O[C@@H](OC2[C@H](C)CCC[C@H]2O[C@@H]2OC(CO)[C@H](O)C3O[C@@H](C(=O)O)CCCCOC32)[C@@H](O)C(O)[C@@H]1O (stereo partly shown) [Compound 18a]	
15.8	CC1O[C@@H](OC2[C@H](C)CCC[C@H]2O[C@@H]2OC(CO)[C@H](O)C3O[C@@H](C(=O)O)CCCOC32)[C@@H](O)C(O)[C@@H]1O (stereo partly shown) [Compound 25]	
7.3	CC[C@@H]1CCC[C@@H](O[C@@H]2OC(CO)[C@H](O)C3O[C@@H](C(=O)O)CCCCOC32)C1O[C@@H]1OC(C)[C@@H](O)C(O)[C@@H]1O (stereo partly shown) [Compound 39]	
3.8	CC[C@@H]1CCC[C@@H](O[C@@H]2OC(CO)[C@H](O)C3O[C@@H](C(=O)O)CCCOC32)C1O[C@@H]1OC(C)[C@@H](O)C(O)[C@@H]1O (stereo partly shown) [Compound 47]	
